In PMC6934085 (Science signaling, 2019):

How the values were obtained:
[1] = biological target: T1, hNOP receptor (Homo sapiens, UniProt P41146); type: cell-based
[2] = biological target: T2, NOP receptor (Mus musculus, UniProt P35377); type: cell-based
[3] = biological target: T2, NOP receptor; experiment: In vivo NOP receptor phosphorylation in brain of NOP-eGFP knock-in mice; details: SB 612111 30 mg/kg pretreatment 30 min, then AT-202 30 mg/kg
[4] = biological target: T1, hNOP receptor; type: cell-based; remark: listed apart in the source
[5] = system: NOP receptor; details: cited from earlier work

T1 sequence (P41146 whole entry): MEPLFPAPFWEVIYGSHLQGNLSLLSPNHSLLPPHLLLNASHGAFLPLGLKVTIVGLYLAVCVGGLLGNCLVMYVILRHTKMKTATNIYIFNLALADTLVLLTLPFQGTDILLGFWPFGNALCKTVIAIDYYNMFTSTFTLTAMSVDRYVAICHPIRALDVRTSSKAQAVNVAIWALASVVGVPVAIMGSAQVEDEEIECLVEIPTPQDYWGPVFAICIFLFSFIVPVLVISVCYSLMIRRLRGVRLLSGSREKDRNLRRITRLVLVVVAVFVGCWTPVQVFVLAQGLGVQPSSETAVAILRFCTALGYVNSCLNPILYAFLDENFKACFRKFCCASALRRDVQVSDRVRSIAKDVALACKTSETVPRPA
T2 sequence (P35377 whole entry): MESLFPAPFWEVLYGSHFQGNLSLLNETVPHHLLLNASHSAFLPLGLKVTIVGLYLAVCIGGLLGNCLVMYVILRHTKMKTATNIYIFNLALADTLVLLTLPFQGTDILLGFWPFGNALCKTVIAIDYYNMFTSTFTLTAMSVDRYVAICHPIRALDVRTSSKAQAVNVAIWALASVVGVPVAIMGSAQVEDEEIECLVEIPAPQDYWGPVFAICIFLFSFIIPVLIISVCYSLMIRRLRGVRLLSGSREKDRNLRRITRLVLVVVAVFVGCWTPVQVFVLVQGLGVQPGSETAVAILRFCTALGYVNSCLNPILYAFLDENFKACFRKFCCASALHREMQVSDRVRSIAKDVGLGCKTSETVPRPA

C=C[C@@]1(C)CC(=O)[C@]2(O)[C@@]3(C)[C@@H](O)CCC(C)(C)[C@@H]3[C@H](O)[C@H](OC(C)=O)[C@@]2(C)O1 [Forskolin, forskolin]
NOP receptor phosphorylation by second messenger kinase activators [1]: did not produce any detectable phosphorylation

CC1(N2CCC(n3c([C@@H]4CCCNC4)nc4ccccc43)CC2)CCCCCCC1 [MCOPPB]
NOP receptor internalization in ventral midbrain neurons [2]: strong MCOPPB-induced NOP receptor internalization

Cc1cccc2c1CC[C@H](CN1CCC(c3c(Cl)cccc3Cl)CC1)C[C@@H]2O [SB 612111, (−)-cis-1-methyl-7-[[4-(2,6-dichlorophenyl)piperidin-1-yl]methyl]-6,7,8,9-tetrahy dro-5H-benzocyclohepten-5-ol]
Inhibition of N/OFQ-induced NOP receptor phosphorylation [1]: completely blocked N/OFQ-induced phosphorylation | Block of AT-202-induced NOP receptor phosphorylation in mouse brain [3]: could be blocked

CN1CCc2cc(Cl)c(O)cc2[C@@H](c2ccccc2)C1 [SCH23390]
Effect on N/OFQ-induced hyperpolarization [4]: reversed the N/OFQ-evoked hyperpolarization

buprenorphine
Agonist activity in G protein signaling / GIRK channel activation [4]: partial agonistic activity with a remarkably reduced maximal effect compared with N/OFQ | Agonist-induced NOP receptor phosphorylation at Ser346, Ser351 and Thr362/Ser363 [1]: complete lack of NOP receptor phosphorylation | Agonist efficacy at the NOP receptor in cAMP inhibition assays [5]: partial agonists
